{"source": "patent US11992620B2", "about": "“Methods of reducing the risk of mortality associated with a medical treatment” (Mallinckrodt Hospital Products IP Limited, priority 2013, dated 2024)", "key": {"[1]": {"system": "preterm neonates less than 30 weeks gestational age and less than 1250 grams", "assay": "BPD-301 study: multi-center, double blind, placebo-controlled randomized clinical trial of inhaled nitric oxide for prevention of BPD", "format": "in vivo, human", "design": "Mortality by race, % / ALIVE No (mortality rate), %: concentration or dose not given beside the values", "details": "for Mortality by race, %: INO N = 229", "description": "A multi-center, double blind, placebo-controlled randomized clinical trial designated the “BPD-301” study was conducted to examine the efficacy of inhaled nitric oxide in preventing BPD in preterm neonates less than 30 weeks gestational age and less than 1250 grams who required mechanical ventilation or positive pressure support. Patients were identified as (1) American Indian or Alaska Native, (2) Asian, (3) Black, (4) Hispanic, (5) White, or (6) Other. Continuous inhaled nitric oxide or placebo gas administration into the inspiratory limb of the ventilator circuit in the mechanically ventilated subject was accomplished using an INOvent® delivery device. The placebo group received the same dose of nitrogen that the active or treatment group received of inhaled nitric oxide. Administration of inhaled nitric oxide or placebo was begun at a point during the window of time 5 to 14 days after the subject's birth and continued for 24 days thereafter. The starting dose was 20 ppm. A dose reduction schedule was followed: after 72 hours of treatment at 20 ppm, reducing to 10 ppm, and then reducing to 5 ppm on day 10. If an infant was extubated before 24 days, therapy was continued via nasal continuous positive airway pressure or nasal cannula to complete the protocol. 451 infants less than 30 weeks of gestation age were included in this trial, of which 449 were randomized and 2 were not randomized. There was a 1:1 randomization with 220 infants treated with placebo and 229 treated with inhaled nitric oxide.\nIn order to enroll in the BPD 301 study and receive inhaled nitric oxide for the prevention of BPD, a pre-term neonate could not have already previously been administered inhaled nitric oxide.\nAdditionally, if the pre-term neonate had undiagnosed pulmonary hypertension and happened to be placed on placebo (nitrogen) for purposes of the BPD-301 study, the pre-term neonate's hypoxic respiratory failure would have worsened and would have likely required immediate treatment with commercial inhaled nitric oxide. This administration of commercial inhaled nitric oxide would have failed the subject from the trial, both reducing the power of the trial and eliminating the subject from the study analysis.\nA synopsis of the BPD-301 protocol follows.\nThe placebo and treatment groups were matched for the following characteristics: gestational age, age at the start of treatment, sex, length at birth, weight, head circumference, respiratory severity scores, apgar scores, and physical exam results."}, "[2]": {"system": "pre-term neonates", "details": "5 ppm for 7-21 days, cited from earlier work"}, "[3]": {"system": "pre-term neonates", "details": "5 ppm while intubated, cited from earlier work"}, "[4]": {"system": "pre-term neonates", "details": "5 ppm increased to 10 ppm if no response; mean 3 days therapy; cited from earlier work"}, "[5]": {"system": "experimental BPD in preterm lambs", "details": "prolonged therapy, cited from earlier work"}, "[6]": {"system": "pre-term neonates", "details": "10 ppm for 1 day, then 5 ppm for 6 days, cited from earlier work"}, "[7]": {"system": "pre-term neonates", "details": "5 ppm for 7 days, cited from earlier work"}, "[8]": {"system": "pre-term neonates", "details": "cited from earlier work"}, "[9]": {"details": "FEMALE N = 64, inhaled nitric oxide-treated white infants less than 27 weeks gestational age"}, "[10]": {"details": "median treatment duration 14 days"}}, "note": "Like-named read-outs stand apart in the source and are kept apart here."}
{"smiles": "[N]=O", "note": "[inhaled nitric oxide, nitric oxide]", "values": [{"measurement": "Mortality by race, %", "setting": "[1]; ALL, p=0.436 vs placebo, Fisher's exact test", "value": 11.35, "unit": "%"}, {"measurement": "Mortality by race, %", "setting": "[1]; American Indian or Alaska Native", "value": 0.00, "unit": "%"}, {"measurement": "Mortality by race, %", "setting": "[1]; Asian", "value": 0.00, "unit": "%"}, {"measurement": "Mortality by race, %", "setting": "[1]; Black", "value": 2.62, "unit": "%"}, {"measurement": "ALIVE No (mortality rate), %", "setting": "[1]; [9]", "value": 4.7, "unit": "%"}, {"measurement": "ALIVE Yes, %", "setting": "[1]; [9]", "value": 95.3, "unit": "%"}, {"measurement": "Mortality by race, %", "setting": "[1]; Hispanic", "value": 1.31, "unit": "%"}, {"measurement": "ALIVE No (mortality rate), %", "setting": "[1]; MALE N = 56, inhaled nitric oxide-treated white infants less than 27 weeks gestational age", "value": 21.4, "unit": "%"}, {"measurement": "ALIVE Yes, %", "setting": "[1]; MALE N = 56, inhaled nitric oxide-treated white infants less than 27 weeks gestational age, p=0.011 male vs female", "value": 78.6, "unit": "%"}, {"measurement": "Mortality by race, %", "setting": "[1]; Native Hawaiian or other Pacific Islander", "value": 0.00, "unit": "%"}, {"measurement": "Mortality by race, %", "setting": "[1]; Other", "value": 0.87, "unit": "%"}, {"measurement": "Mortality by race, %", "setting": "[1]; White", "value": 6.55, "unit": "%"}, {"measurement": "difference in mortality between treatment and placebo groups", "setting": "[1]; any other racial category (than white)", "value": "no similar difference"}, {"measurement": "mortality rate, inhaled nitric oxide vs placebo group", "setting": "[1]; overall trial population, Fisher's exact test p=0.436", "value": "not significantly different"}, {"measurement": "mortality rate vs placebo group", "setting": "[1]; white population", "value": "higher mortality rate"}, {"measurement": "ALIVE No (deaths), %", "setting": "[1]; white preterm infants less than 27 weeks gestational age, INO N = 120", "value": 12.5, "unit": "%"}, {"measurement": "ALIVE Yes, %", "setting": "[1]; white preterm infants less than 27 weeks gestational age, INO N = 120, p=0.010 vs placebo", "value": 87.5, "unit": "%"}, {"measurement": "risk of death as compared to placebo", "setting": "[1]; white, male, preterm infants of less than 27 weeks gestational age treated for prevention of BPD", "value": "significant risk of death"}, {"measurement": "survival without BPD at 36 weeks postmenstrual age", "setting": "[2]", "value": 65, "unit": "%"}, {"measurement": "survival without BPD at 36 weeks postmenstrual age vs placebo", "setting": "[2]; p=0.73", "value": "no difference"}, {"measurement": "IVH/PVL", "setting": "[3]", "value": 17.5, "unit": "%"}, {"measurement": "CLD or death", "setting": "[3]; [10]", "value": 71.6, "unit": "%"}, {"measurement": "CLD or death vs placebo", "setting": "[3]; [10]", "value": "no difference"}, {"measurement": "reduction in IVH/PVL", "setting": "[3]; vs placebo", "value": 27, "unit": "%"}, {"measurement": "IVH vs placebo", "setting": "[4]", "value": "no difference"}, {"measurement": "death or BPD vs placebo", "setting": "[4]", "value": "no difference"}, {"measurement": "lung vascular growth", "setting": "[5]; after VEGF inhibition", "value": "improves lung vascular growth"}, {"measurement": "alveolarization", "setting": "[5]; experimental BPD in preterm lambs", "value": "improves alveolarization"}, {"measurement": "CLD/death", "setting": "[6]", "value": 48.6, "unit": "%"}, {"measurement": "severe IVH/PVL", "setting": "[6]", "value": 12.4, "unit": "%"}, {"measurement": "reduction in \"abnormal or delayed\" development", "setting": "[6]; p=0.01", "value": 47, "unit": "%"}, {"measurement": "reduction in CLD/death", "setting": "[6]; vs placebo, p=0.03", "value": 24, "unit": "%"}, {"measurement": "reduction in severe IVH/PVL", "setting": "[6]; vs placebo, p=0.04", "value": 47, "unit": "%"}, {"measurement": "death or BPD", "setting": "[7]", "value": 77, "unit": "%"}, {"measurement": "severe intraventricular haemorrhage (IVH)", "setting": "[7]", "value": "no increase"}, {"measurement": "reduction in death or BPD", "setting": "[7]; vs placebo, p=0.14", "value": 15.4, "unit": "%"}, {"measurement": "survival without CLD at 36 weeks postmenstrual age", "setting": "[8]; 20 ppm for 2 to 4 days, then stepped-down weekly, 24 days", "value": 43.9, "unit": "%"}, {"measurement": "improvement in survival without CLD at 36 weeks postmenstrual age", "setting": "[8]; 20 ppm for 2 to 4 days, then stepped-down weekly, 24 days, vs placebo, p=0.042", "value": 20, "unit": "%"}, {"measurement": "discharged or off all ventilator support", "setting": "[8]; 40 weeks, p=0.01", "value": 65, "unit": "%"}, {"measurement": "discharged or off all ventilator support", "setting": "[8]; 44 weeks, p=0.03", "value": 82, "unit": "%"}]}
